Reference: the supplement of paper PMC13380429

Tests used:
Details in all cases: 72 h
HepG2 [1] = test: cell viability relative to DMSO; higher = less toxic
Vero E6 [2] = test: as above
Caco-2 [3] = test: as above
Calu-3 [4] = test: as above
U2OS [5] = test: as above
HepG2 [6] = test: relative viability EC50 (midpoint between 100% and the lowest measured viability); higher = less toxic
Vero E6 [7] = test: as above
Caco-2 [8] = test: as above
Calu-3 [9] = test: as above
U2OS [10] = test: as above
HepG2 [11] = test: drug sensitivity score (DSS) for viability; higher = more toxic; extreme values may be limits of the assay
Vero E6 [12] = test: as above
Caco-2 [13] = test: as above
Calu-3 [14] = test: as above
U2OS [15] = test: as above

| Structure (SMILES) | cell viability (HepG2 [1]; 1 nM) [%] | cell viability (HepG2 [1]; 10 nM) [%] | cell viability (HepG2 [1]; 100 nM) [%] | cell viability (HepG2 [1]; 1000 nM) [%] | cell viability (HepG2 [1]; 10000 nM) [%] | cell viability (Vero E6 [2]; 1 nM) [%] | cell viability (Vero E6 [2]; 10 nM) [%] | cell viability (Vero E6 [2]; 100 nM) [%] | cell viability (Vero E6 [2]; 1000 nM) [%] | cell viability (Vero E6 [2]; 10000 nM) [%] | cell viability (Caco-2 [3]; 1 nM) [%] | cell viability (Caco-2 [3]; 10 nM) [%] | cell viability (Caco-2 [3]; 100 nM) [%] | cell viability (Caco-2 [3]; 1000 nM) [%] | cell viability (Caco-2 [3]; 10000 nM) [%] | cell viability (Calu-3 [4]; 1 nM) [%] | cell viability (Calu-3 [4]; 10 nM) [%] | cell viability (Calu-3 [4]; 100 nM) [%] | cell viability (Calu-3 [4]; 1000 nM) [%] | cell viability (Calu-3 [4]; 10000 nM) [%] | cell viability (U2OS [5]; 1 nM) [%] | cell viability (U2OS [5]; 10 nM) [%] | cell viability (U2OS [5]; 100 nM) [%] | cell viability (U2OS [5]; 1000 nM) [%] | cell viability (U2OS [5]; 10000 nM) [%] | relative viability EC50 (HepG2 [6]) [µM] | relative viability EC50 (Vero E6 [7]) [µM] | relative viability EC50 (Caco-2 [8]) [µM] | relative viability EC50 (Calu-3 [9]) [µM] | relative viability EC50 (U2OS [10]) [µM] | drug sensitivity score (HepG2 [11]) | drug sensitivity score (Vero E6 [12]) | drug sensitivity score (Caco-2 [13]) | drug sensitivity score (Calu-3 [14]) | drug sensitivity score (U2OS [15]) |
| --- | --- | --- | --- | --- | --- | --- | --- | --- | --- | --- | --- | --- | --- | --- | --- | --- | --- | --- | --- | --- | --- | --- | --- | --- | --- | --- | --- | --- | --- | --- | --- | --- | --- | --- | --- |
| C[C@@](Cc1ccc(O)c(O)c1)(NN)C(=O)O [carbidopa] | 107 | 113 | 101 | 98.5 | 95.8 | 92.6 | 87.6 | 91.4 | 90.4 | 106 | 98.1 | 94.4 | 95.1 | 110 | 108 | 100 | 103 | 89.5 | 114 | 99.9 | 92.9 | 99.9 | 92.8 | 100 | 102 | > 10 | > 10 | > 10 | > 10 | > 10 | 0 | 0 | 0 | 0 | 0 |
| CCCCCCCCCCCCCCCCOc1nc2ccc(C)cc2c(=O)o1 [cetilistat] | 106 | 94 | 113 | 99.9 | 97.9 | 99.8 | 81.8 | 98 | 99.4 | 105 | 94.8 | 96.6 | 89.8 | 107 | 96.7 | 103 | 107 | 94.8 | 100 | 107 | 93.7 | 98.2 | 93.5 | 99.7 | 103 | > 10 | > 10 | > 10 | > 10 | > 10 | 0 | 0 | 0 | 0 | 0 |
| O=C(O)CCC(=O)OC[C@@H](NC(=O)C(Cl)Cl)[C@H](O)c1ccc([N+](=O)[O-])cc1 [chloramphenicol-sodium-succinate] | 105 | 114 | 88.3 | 103 | 96.3 | 104 | 104 | 96.5 | 102 | 97.2 | 103 | 95.1 | 98.2 | 100 | 103 | 108 | 97.1 | 97.3 | 91 | 106 | 100 | 96.9 | 98.1 | 99.3 | 102 | > 10 | > 10 | > 10 | > 10 | > 10 | 0 | 0 | 0 | 0 | 0 |
| NCC(=O)N1C[C@H](NC(=O)c2ccccc2)C[C@H]1C(=O)O [danegaptide] | 106 | 102 | 99.7 | 101 | 104 | 101 | 101 | 93.8 | 99.9 | 106 | 98.3 | 97.1 | 90.7 | 86.3 | 107 | 98.6 | 93.3 | 101 | 96.4 | 91.1 | 93.6 | 93.6 | 98.5 | 101 | 99.3 | > 10 | > 10 | > 10 | > 10 | > 10 | 0 | 0 | 0 | 0 | 0 |
| CCCCCCCCCCOc1cc2c(O)c(C(=O)OCC)cnc2cc1OCC [decoquinate] | 95.9 | 103 | 98.9 | 107 | 96.2 | 102 | 103 | 105 | 96.7 | 103 | 101 | 92.6 | 93.3 | 89.4 | 96.6 | 99.8 | 107 | 106 | 98.2 | 105 | 100 | 99.8 | 99 | 99.6 | 100 | > 10 | > 10 | > 10 | > 10 | > 10 | 0 | 0 | 0 | 0 | 0 |
| N#CC(Cc1ccc(O)cc1)c1ccc(O)cc1 (stereo not given) [diarylpropionitrile] | 98.7 | 90.3 | 99.6 | 89.2 | 102 | 99.4 | 104 | 99.1 | 102 | 94.8 | 99 | 103 | 88.4 | 100 | 95.3 | 108 | 91.2 | 100 | 94.3 | 103 | 99.6 | 99.4 | 98.7 | 102 | 102 | > 10 | > 10 | > 10 | > 10 | > 10 | 0 | 0 | 0 | 0 | 0 |
